Source: US20020026053A1, “Novel 3-(substituted) -2- indolinones compounds and use thereof as inhibitors of protein kinase activity” (priority 1997, published 2002)

Key:
FLK-1 receptor = assay: FLK-1 Assay (cellular/catalytic ELISA, VEGF-stimulated phosphotyrosine); type: cell-based; set-up: concentration or dose not given beside the values; details: protocol P.110
Summary of the method: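 NIH3T3 C7#3 cells engineered to express Flk-1 were serum-starved overnight (0.1% FBS), then exposed to compound for 2 h at 37 °C (final dilution 1:200, 0.5% DMSO) before VEGF stimulation. Lysates captured on anti-FLK-1 antiserum plates; phosphotyrosine detected by UB40 antibody/POD-ABTS ELISA versus untreated controls.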

PDGF-R = PDGF-R Assay (cellular ELISA, U1242 cells); type: cell-based; set-up: concentration or dose not given beside the values; details: protocol P.119
Summary of the method: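 U1242 cells seeded in 0.5% serum, serum-starved, then exposed to compound for 2 hr at 37°C before 5–10 min ligand stimulation and lysis in HNTG. Lysate captured on receptor-antibody-coated plates; phosphotyrosine detected with polyclonal anti-pTyr, goat anti-rabbit IgG and ABTS/H2O2, A410 (ref 630 nm), versus untreated cells.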

O=C1Nc2ccc(S(=O)(=O)N3CCOCC3)cc2C1=Cc1cc(O)c(O)c(O)c1 [10739/F07]
Flk Kinase % Inhibition (P.110) (FLK-1 receptor): 0.6% | PDGF Kinase % Inhibition (P.119) (PDGF-R): 23.7%

COc1ccc(Oc2cccc(C=C3C(=O)Nc4ccc(S(=O)(=O)N5CCOCC5)cc43)c2)cc1 [10739/F08]
Flk Kinase % Inhibition (P.110) (FLK-1 receptor): 7.0% | PDGF Kinase % Inhibition (P.119) (PDGF-R): 9.1%

CN(C)CCCOc1ccc(C=C2C(=O)Nc3ccc(S(=O)(=O)N4CCOCC4)cc32)cc1 [10739/F09]
Flk Kinase % Inhibition (P.110) (FLK-1 receptor): 15.6% | PDGF Kinase % Inhibition (P.119) (PDGF-R): 3.3%

O=C1Nc2ccc(S(=O)(=O)N3CCOCC3)cc2C1=Cc1ccoc1 [10739/F10]
Flk Kinase % Inhibition (P.110) (FLK-1 receptor): 12.3% | PDGF Kinase % Inhibition (P.119) (PDGF-R): 4.2%

O=C1Nc2ccc(S(=O)(=O)N3CCOCC3)cc2C1=Cc1ccc(CO)o1 [10739/F11]
Flk Kinase % Inhibition (P.110) (FLK-1 receptor): 11.9% | PDGF Kinase % Inhibition (P.119) (PDGF-R): 0.8%

COc1ccc(C=C2C(=O)Nc3ccc(CCCl)cc32)cc1C [10739/G02]
Flk Kinase % Inhibition (P.110) (FLK-1 receptor): 5.9% | PDGF Kinase % Inhibition (P.119) (PDGF-R): −12.2%

O=C1Nc2ccc(CCCl)cc2C1=Cc1cccc(OCc2ccccc2)c1 [10739/G03]
Flk Kinase % Inhibition (P.110) (FLK-1 receptor): 1.9% | PDGF Kinase % Inhibition (P.119) (PDGF-R): −6.9%

O=C1Nc2ccc(CCCl)cc2C1=Cc1ccc(OCc2ccccc2)cc1 [10739/G04]
Flk Kinase % Inhibition (P.110) (FLK-1 receptor): 4.5% | PDGF Kinase % Inhibition (P.119) (PDGF-R): −3.5%

O=C1Nc2ccc(CCCl)cc2C1=CC1COc2ccccc2O1 (centres unmarked) [10739/G05]
Flk Kinase % Inhibition (P.110) (FLK-1 receptor): 10.7% | PDGF Kinase % Inhibition (P.119) (PDGF-R): −5.9%

O=C1Nc2ccc(CCCl)cc2C1=Cc1ccc(O)cc1Cl [10739/G06]
Flk Kinase % Inhibition (P.110) (FLK-1 receptor): 14.0% | PDGF Kinase % Inhibition (P.119) (PDGF-R): −6.4%

O=C1Nc2ccc(CCCl)cc2C1=Cc1cc(O)c(O)c(O)c1 [10739/G07]
Flk Kinase % Inhibition (P.110) (FLK-1 receptor): −4.9% | PDGF Kinase % Inhibition (P.119) (PDGF-R): 10.1%

COc1ccc(Oc2cccc(C=C3C(=O)Nc4ccc(CCCl)cc43)c2)cc1 [10739/G08]
Flk Kinase % Inhibition (P.110) (FLK-1 receptor): 15.0% | PDGF Kinase % Inhibition (P.119) (PDGF-R): 1.3%

CN(C)CCCOc1ccc(C=C2C(=O)Nc3ccc(CCCl)cc32)cc1 [10739/G09]
Flk Kinase % Inhibition (P.110) (FLK-1 receptor): 3.1% | PDGF Kinase % Inhibition (P.119) (PDGF-R): 13.9%

O=C1Nc2ccc(CCCl)cc2C1=Cc1ccoc1 [10739/G10]
Flk Kinase % Inhibition (P.110) (FLK-1 receptor): −2.0% | PDGF Kinase % Inhibition (P.119) (PDGF-R): −0.6%

O=C1Nc2ccc(CCCl)cc2C1=Cc1ccc(CO)o1 [10739/G11]
Flk Kinase % Inhibition (P.110) (FLK-1 receptor): 9.8% | PDGF Kinase % Inhibition (P.119) (PDGF-R): 7.6%

COc1ccc(C=C2C(=O)Nc3c(Br)cc(Br)c(C)c32)cc1C [10739/H02]
Flk Kinase % Inhibition (P.110) (FLK-1 receptor): 2.2% | PDGF Kinase % Inhibition (P.119) (PDGF-R): −18.6%

Cc1c(Br)cc(Br)c2c1C(=Cc1cccc(OCc3ccccc3)c1)C(=O)N2 [10739/H03]
Flk Kinase % Inhibition (P.110) (FLK-1 receptor): 1.6% | PDGF Kinase % Inhibition (P.119) (PDGF-R): −19.5%

Cc1c(Br)cc(Br)c2c1C(=Cc1ccc(OCc3ccccc3)cc1)C(=O)N2 [10739/H04]
Flk Kinase % Inhibition (P.110) (FLK-1 receptor): 9.9% | PDGF Kinase % Inhibition (P.119) (PDGF-R): −14.2%

Cc1c(Br)cc(Br)c2c1C(=Cc1ccc(O)cc1Cl)C(=O)N2 [10739/H06]
Flk Kinase % Inhibition (P.110) (FLK-1 receptor): 35.6% | PDGF Kinase % Inhibition (P.119) (PDGF-R): −17.1%

Cc1c(Br)cc(Br)c2c1C(=Cc1cc(O)c(O)c(O)c1)C(=O)N2 [10739/H07]
Flk Kinase % Inhibition (P.110) (FLK-1 receptor): −1.4% | PDGF Kinase % Inhibition (P.119) (PDGF-R): 14.9%

COc1ccc(Oc2cccc(C=C3C(=O)Nc4c(Br)cc(Br)c(C)c43)c2)cc1 [10739/H08]
Flk Kinase % Inhibition (P.110) (FLK-1 receptor): 4.0% | PDGF Kinase % Inhibition (P.119) (PDGF-R): −3.5%

Cc1c(Br)cc(Br)c2c1C(=Cc1ccoc1)C(=O)N2 [10739/H10]
Flk Kinase % Inhibition (P.110) (FLK-1 receptor): 15.0% | PDGF Kinase % Inhibition (P.119) (PDGF-R): −13.2%
